Where two headings read alike, the source gives them in different places.
What was measured:
[1] = target: T1, human mGluR2 (hmGluR2) (Homo sapiens, UniProt Q14416); assay: Ca++ functional assay, human mGluR2 transiently over-expressed in HEK-293 cells (agonist and negative allosteric modulator modes); type: cell-based; conditions: glutamate at EC80, intracellular calcium (Fluo4AM)
T1 construct: expressed in transfected cells; host or cells: HEK-293 cells, transient co-transfection by electroporation
Outline: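 HEK-293 cells transiently co-transfected with hmGluR2, a chimeric G protein and two glutamate transporters; Fluo4-AM calcium fluorescence (485/525 nm) on FLIPR. Agonist mode judged against buffer, NAM mode against EC80 glutamate, 3 min recording; 20-concentration curves over 6 logs, variable-slope fit for IC50, duplicate, two independent runs.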

[2] = target: T2, human mGluR3 (hmGluR3) (Homo sapiens, UniProt Q14832); assay: Ca++ functional assay, human mGluR3 transiently over-expressed in HEK-293 cells (agonist and negative allosteric modulator modes); type: cell-based; conditions: glutamate at EC80, intracellular calcium (Fluo4AM)
T2 construct: expressed in transfected cells; host or cells: HEK-293 cells, transient co-transfection by electroporation
Experimental: Example 127: Human mGluR2 and mGluR3 Evaluation Using Ca^++ Functional Assay
Examples of the present invention were tested successively for their agonist and negative allosteric modulator activities on human mGluR2 (hmGluR2) and mGluR3 (hmGluR3) transiently over-expressed in HEK-293 cells. Compounds exert agonist activity if, by themselves in absence of glutamate, they are able to activate hmGluR2 or hmGluR3; and they exert negative allosteric modulator activity if they decrease the action of glutamate (which is employed at its EC80 concentration).
Cell Culture and Transfection […]
Receptor activity is detected by changes in intracellular calcium measured using the fluorescent Ca^2+ sensitive dye, Fluo4AM (Molecular Probes).
On the day of the assay, culture medium is aspirated and replaced during 3 hours by medium without serum supplemented with 1% Glutamax, 1% Penicillin/Streptomycin and 1% non-essential amino acids. […] Addition of compounds and intracellular Ca^2+ measurements (excitation 485 nm, emission 525 nm) are performed by the fluorescence microplate reader FLIPRTetra (Molecular Devices).
Agonist and negative allosteric modulator activities of compounds are consecutively evaluated on the same cell plate. […] Then, cells are stimulated by an EC80 glutamate concentration and fluorescence is recorded for additional 3 minutes. […]

[3] = read-out: IC50 for human mGluR2 (negative allosteric modulator activity)
[4] = read-out: hmGluR2 negative allosteric modulator activity IC50

T1 sequence (Q14416 19-872): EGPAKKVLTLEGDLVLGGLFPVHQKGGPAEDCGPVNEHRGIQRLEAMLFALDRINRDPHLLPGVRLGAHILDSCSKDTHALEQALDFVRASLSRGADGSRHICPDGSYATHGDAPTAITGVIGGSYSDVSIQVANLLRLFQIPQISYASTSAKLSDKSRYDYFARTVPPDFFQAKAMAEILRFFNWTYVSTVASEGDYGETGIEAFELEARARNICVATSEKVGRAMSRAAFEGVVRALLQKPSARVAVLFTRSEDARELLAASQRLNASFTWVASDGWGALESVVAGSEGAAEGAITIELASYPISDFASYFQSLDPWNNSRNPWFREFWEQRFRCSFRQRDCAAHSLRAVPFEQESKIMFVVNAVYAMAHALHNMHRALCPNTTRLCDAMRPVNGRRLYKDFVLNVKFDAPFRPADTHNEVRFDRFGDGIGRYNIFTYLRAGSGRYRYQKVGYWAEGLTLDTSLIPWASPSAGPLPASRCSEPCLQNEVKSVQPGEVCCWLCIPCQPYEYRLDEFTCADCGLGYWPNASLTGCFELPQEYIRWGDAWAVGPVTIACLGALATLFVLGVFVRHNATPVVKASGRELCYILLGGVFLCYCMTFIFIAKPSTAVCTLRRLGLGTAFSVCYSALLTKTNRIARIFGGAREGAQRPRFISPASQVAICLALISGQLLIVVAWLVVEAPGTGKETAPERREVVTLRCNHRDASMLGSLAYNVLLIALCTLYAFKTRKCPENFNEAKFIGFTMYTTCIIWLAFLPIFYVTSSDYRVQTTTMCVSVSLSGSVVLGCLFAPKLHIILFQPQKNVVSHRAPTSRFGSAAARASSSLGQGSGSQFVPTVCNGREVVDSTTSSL
T2 sequence (Q14832 23-879): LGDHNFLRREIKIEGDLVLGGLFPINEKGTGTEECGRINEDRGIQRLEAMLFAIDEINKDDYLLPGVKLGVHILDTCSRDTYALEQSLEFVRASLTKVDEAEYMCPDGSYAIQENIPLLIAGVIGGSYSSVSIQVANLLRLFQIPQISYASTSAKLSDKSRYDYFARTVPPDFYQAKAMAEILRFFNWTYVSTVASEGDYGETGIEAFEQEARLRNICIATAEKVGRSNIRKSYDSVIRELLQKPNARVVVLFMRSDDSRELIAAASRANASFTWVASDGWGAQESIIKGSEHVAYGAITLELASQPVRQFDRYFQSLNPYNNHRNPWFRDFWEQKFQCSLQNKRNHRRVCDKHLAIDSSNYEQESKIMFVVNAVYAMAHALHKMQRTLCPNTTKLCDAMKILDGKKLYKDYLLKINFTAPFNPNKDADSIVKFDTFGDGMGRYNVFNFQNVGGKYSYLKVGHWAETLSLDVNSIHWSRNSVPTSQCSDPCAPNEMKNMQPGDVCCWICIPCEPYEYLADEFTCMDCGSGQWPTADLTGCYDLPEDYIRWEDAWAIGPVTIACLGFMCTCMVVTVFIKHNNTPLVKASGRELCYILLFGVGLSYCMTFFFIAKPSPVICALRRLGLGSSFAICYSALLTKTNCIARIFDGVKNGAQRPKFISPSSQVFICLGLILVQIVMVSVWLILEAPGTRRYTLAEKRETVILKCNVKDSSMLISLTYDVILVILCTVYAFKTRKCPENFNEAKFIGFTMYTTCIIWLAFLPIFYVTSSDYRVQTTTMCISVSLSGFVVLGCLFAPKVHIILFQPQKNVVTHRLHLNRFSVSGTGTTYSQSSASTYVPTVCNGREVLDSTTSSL

SMILES | IC50 [1, 3] [nM] | IC50 [1, 4] [nM] | IC50 [2] [nM] | melting point [°C]
Cn1c(=O)c2ccccc2n2nc(-c3ccnc(Cl)c3)cc12 [Example 1, 2-(2-Chloro-pyridin-4-yl)-4-methyl-4H-pyrazolo[1,5-a]quinazolin-5-one] | < 100 | < 1000 | > 1000 | –
C=Cc1cc(-c2cc3n(C)c(=O)c4ccccc4n3n2)ccn1 [Example 9, 4-Methyl-2-(2-vinyl-pyridin-4-yl)-4H-pyrazolo[1,5-a]quinazolin-5-one] | < 100 | < 1000 | > 1000 | –
Cn1c(=O)c2ccc(F)cc2n2nc(-c3ccnc(C(F)F)c3)cc12 [Example 114, 2-(2-Difluoromethyl-pyridin-4-yl)-8-fluoro-4-methyl-4H-pyrazolo[1,5-a]quinazolin-5-one] | – | < 1000 | – | 220 to 226
Cn1c(=O)c2ccc(N3CCC(O)CC3)cc2n2nc(-c3ccnc(C(F)F)c3)cc12 [Example 115, 2-(2-Difluoromethyl-pyridin-4-yl)-8-(4-hydroxy-piperidin-1-yl)-4-methyl-4H-pyrazolo[1,5-a]quinazolin-5-one] | – | < 1000 | – | > 250
Cn1c(=O)c2ccc(F)cc2n2nc(-c3ccnc(C4CCC4)c3)cc12 [Example 116, 2-(2-Cyclobutyl-pyridin-4-yl)-8-fluoro-4-methyl-4H-pyrazolo[1,5-a]quinazolin-5-one] | – | < 1000 | – | 210 to 220
Cn1c(=O)c2cc(F)c(N3CC(O)C3)cc2n2nc(-c3ccnc(C(F)(F)F)c3)cc12 [Example 119, 7-Fluoro-8-(3-hydroxy-azetidin-1-yl)-4-methyl-2-(2-trifluoromethyl-pyridin-4-yl)-4H-pyrazolo[1,5-a]quinazolin-5-one] | – | < 1000 | – | > 250
Cn1c(=O)c2cc(F)c(OC3COC3)cc2n2nc(-c3ccnc(C(F)(F)F)c3)cc12 [Example 120, 7-Fluoro-4-methyl-8-(oxetan-3-yloxy)-2-(2-trifluoromethyl-pyridin-4-yl)-4H-pyrazolo[1,5-a]quinazolin-5-one] | – | < 1000 | – | > 250
Cn1c(=O)c2cc(F)c(NCCC#N)cc2n2nc(-c3ccnc(C(F)(F)F)c3)cc12 [Example 121, 3-[7-Fluoro-4-methyl-5-oxo-2-(2-trifluoromethyl-pyridin-4-yl)-4,5-dihydro-pyrazolo[1,5-a]quinazolin-8-ylamino]-propionitrile] | – | < 1000 | – | > 250
Cn1c(=O)c2cc(F)c(N3CCCC3CO)cc2n2nc(-c3ccnc(C(F)(F)F)c3)cc12 (stereo not shown) [Example 122, 7-Fluoro-8-(2-hydroxymethyl-pyrrolidin-1-yl)-4-methyl-2-(2-trifluoromethyl-pyridin-4-yl)-4H-pyrazolo[1,5-a]quinazolin-5-one] | – | < 1000 | – | > 250
CC1CN(c2ccc3c(=O)n(C)c4cc(-c5ccnc(C(F)(F)F)c5)nn4c3c2)CC(C)O1 (stereo not shown) [Example 125, 8-(2,6-Dimethyl-morpholin-4-yl)-4-methyl-2-(2-trifluoromethyl-pyridin-4-yl)-4H-pyrazolo[1,5-a]quinazolin-5-one] | – | < 1000 | – | > 250
